For orientation: IC50 means the point on the concentration scale where inhibition reaches its midpoint.

Read-outs that look alike come from different tables or passages of the source.

In this experiment the target is HIS-TGF-βR1 T204D (Homo sapiens (Human), UniProt P36897, T204D). In words: HTRF probe displacement assay with HIS-TGF-βR1 T204D. For orientation: Time-resolved FRET reads energy transfer from a long-lived donor to a nearby acceptor.
Where [1] appears, read: read-out: TGFbr1 IC50, HTRF probe displacement, 1 nM HIS-TGF-βR1 T204D, 1 hour at room temperature.

Chain of HIS-TGF-βR1 T204D (P36897 34-503 T204D): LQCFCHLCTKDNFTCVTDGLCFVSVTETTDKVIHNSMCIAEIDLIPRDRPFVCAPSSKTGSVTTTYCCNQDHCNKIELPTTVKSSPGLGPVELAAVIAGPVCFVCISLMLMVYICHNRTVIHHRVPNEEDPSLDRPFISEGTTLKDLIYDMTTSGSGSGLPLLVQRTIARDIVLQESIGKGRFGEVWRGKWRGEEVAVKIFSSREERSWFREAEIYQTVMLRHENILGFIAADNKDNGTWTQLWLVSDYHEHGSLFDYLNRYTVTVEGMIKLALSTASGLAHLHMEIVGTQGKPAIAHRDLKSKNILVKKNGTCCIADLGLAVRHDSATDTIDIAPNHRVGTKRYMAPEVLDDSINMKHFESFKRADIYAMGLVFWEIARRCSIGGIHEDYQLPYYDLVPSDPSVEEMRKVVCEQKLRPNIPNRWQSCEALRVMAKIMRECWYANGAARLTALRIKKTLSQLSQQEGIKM

Consider `NC(=O)c1cnc2ccc(-c3c(-c4ccc(F)cc4)ncn3C34CC(C3)C4)nn12` [136′, 6-(1-(bicyclo[1.1.1]pentan-1-yl)-4-(4-fluorophenyl)-1H-imidazol-5-yl)imidazo[1,2-b]pyridazine-3-carboxamide], for which the IC50 under setting [1] was determined as 12.4 nM.
In the case of `CC(F)(F)Cn1cnc(-c2ccc(F)cc2)c1-c1ccc2ncc(C(N)=O)n2n1` [137′, 6-(1-(2,2-difluoropropyl)-4-(4-fluorophenyl)-1H-imidazol-5-yl)imidazo[1,2-b]pyridazine-3-carboxamide], under setting [1], the IC50 came to 0.6 nM.
As to `NC(=O)c1cnc2ccc(-c3c(-c4ccc(F)c(Cl)c4)ncn3CCO)nn12` [138′, 6-(4-(3-chloro-4-fluorophenyl)-1-(2-hydroxyethyl)-1H-imidazol-5-yl)imidazo[1,2-b]pyridazine-3-carboxamide], the IC50 under setting [1] is 0.7 nM.
In turn, `NC(=O)c1cnc2ccc(-c3c(-c4ccc(F)c(Cl)c4)ncn3[C@H]3C[C@@H](O)C3)nn12` [140′, 6-(4-(3-chloro-4-fluorophenyl)-1-((1s,3s)-3-hydroxycyclobutyl)-1H-imidazol-5-yl)imidazo[1,2-b]pyridazine-3-carboxamide] came in with an IC50 of 2.8 nM.
As for `NC(=O)c1cnc2ccc(-c3c(-c4ccc(F)c(Cl)c4)ncn3C3CC(F)C3)nn12` (stereo not drawn) [141′, 6-(4-(3-chloro-4-fluorophenyl)-1-(3-fluorocyclobutyl)-1H-imidazol-5-yl)imidazo[1,2-b]pyridazine-3-carboxamide], the IC50 under setting [1] worked out at 0.8 nM.
Consider `NC(=O)c1cnc2ccc(-c3c(-c4ccc(F)c(Cl)c4)ncn3CCCO)nn12` [142′, 6-(4-(3-chloro-4-fluorophenyl)-1-(3-hydroxypropyl)-1H-imidazol-5-yl)imidazo[1,2-b]pyridazine-3-carboxamide], for which the IC50 under setting [1] was determined as 1.6 nM.
As for `NC(=O)c1cnc2ccc(-c3c(-c4ccc(F)c(Cl)c4)ncn3C[C@@H]3CCCO3)nn12` [145′, (S)-6-(4-(3-chloro-4-fluorophenyl)-1-((tetrahydrofuran-2-yl)methyl)-1H-imidazol-5-yl)imidazo[1,2-b]pyridazine-3-carboxamide], the IC50 under setting [1] is 2.2 nM.
Same read-out and setting: as for `NC(=O)c1cnc2ccc(-c3c(-c4ccc(F)c(Cl)c4)ncn3C3CCOC3)nn12` (stereo not drawn) [146′, 6-(4-(3-chloro-4-fluorophenyl)-1-(tetrahydrofuran-3-yl)-1H-imidazol-5-yl)imidazo[1,2-b]pyridazine-3-carboxamide], the figure is 1.7 nM; as for `CC(C)CCn1cnc(-c2ccc(F)c(Cl)c2)c1-c1ccc2ncc(C(N)=O)n2n1` [148′, 6-(4-(3-chloro-4-fluorophenyl)-1-isopentyl-1H-imidazol-5-yl)imidazo[1,2-b]pyridazine-3-carboxamide], 1.1 nM.
As for `NC(=O)c1cnc2ccc(-c3c(-c4ccc(F)c(Cl)c4)ncn3CCCCl)nn12` [149′, 6-(4-(3-chloro-4-fluorophenyl)-1-(3-chloropropyl)-1H-imidazol-5-yl)imidazo[1,2-b]pyridazine-3-carboxamide], the IC50 under setting [1] amounted to 1.7 nM.
On the same count and under the same terms, next, `NC(=O)c1cnc2ccc(-c3c(-c4ccc(F)c(Cl)c4)ncn3CCC3CCC3)nn12` [150′, 6-(4-(3-chloro-4-fluorophenyl)-1-(2-cyclobutylethyl)-1H-imidazol-5-yl)imidazo[1,2-b]pyridazine-3-carboxamide]: 1.2 nM; `CC(F)(F)Cn1cnc(-c2ccc(F)c(Cl)c2)c1-c1ccc2ncc(C(N)=O)n2n1` [151′, 6-(4-(3-chloro-4-fluorophenyl)-1-(2,2-difluoropropyl)-1H-imidazol-5-yl)imidazo[1,2-b]pyridazine-3-carboxamide]: 0.6 nM; `CC(CO)n1cnc(-c2ccc(F)cc2)c1-c1ccc2ncc(C(N)=O)n2c1` (stereo not drawn) [152′, 6-(4-(4-fluorophenyl)-1-(1-hydroxypropan-2-yl)-1H-imidazol-5-yl)imidazo[1,2-a]pyridine-3-carboxamide]: 1.1 nM.
In the case of `CC(CCO)n1cnc(-c2ccc(F)cc2)c1-c1ccc2ncc(C(N)=O)n2c1` (stereo not drawn) [154′, 6-(4-(4-fluorophenyl)-1-(4-hydroxybutan-2-yl)-1H-imidazol-5-yl)imidazo[1,2-a]pyridine-3-carboxamide], the IC50 under setting [1] is 2.3 nM.
For `C[C@@H](O)Cn1cnc(-c2ccc(F)cc2)c1-c1ccc2ncc(C(N)=O)n2c1` [155′, (R)-6-(4-(4-fluorophenyl)-1-(2-hydroxypropyl)-1H-imidazol-5-yl)imidazo[1,2-a]pyridine-3-carboxamide], the IC50 under setting [1] was found to be 5.5 nM.
Same read-out and setting: next, `CC(O)CCn1cnc(-c2ccc(F)cc2)c1-c1ccc2ncc(C(N)=O)n2c1` (stereo not drawn) [156′, 6-(4-(4-fluorophenyl)-1-(3-hydroxybutyl)-1H-imidazol-5-yl)imidazo[1,2-a]pyridine-3-carboxamide]: 4.3 nM; `NC(=O)c1cnc2ccc(-c3c(-c4ccc(F)cc4)ncn3CC3CCC3)cn12` [157′, 6-(1-(cyclobutylmethyl)-4-(4-fluorophenyl)-1H-imidazol-5-yl)imidazo[1,2-a]pyridine-3-carboxamide]: 0.8 nM; `C[C@H](O)Cn1cnc(-c2ccc(F)cc2)c1-c1ccc2ncc(C(N)=O)n2c1` [158′, (S)-6-(4-(4-fluorophenyl)-1-(2-hydroxypropyl)-1H-imidazol-5-yl)imidazo[1,2-a]pyridine-3-carboxamide]: 2.7 nM.
On the same count and under the same terms, as for `NC(=O)c1cnc2ccc(-c3c(-c4ccc(F)cc4)ncn3C3CCCC3)cn12` [159′, 6-(1-cyclopentyl-4-(4-fluorophenyl)-1H-imidazol-5-yl)imidazo[1,2-a]pyridine-3-carboxamide], the figure is 0.8 nM.
As for `CCn1cnc(-c2ccc(F)cc2)c1-c1ccc2ncc(C(N)=O)n2c1` [160′, 6-(1-ethyl-4-(4-fluorophenyl)-1H-imidazol-5-yl)imidazo[1,2-a]pyridine-3-carboxamide], under setting [1], the IC50 came out at 0.8 nM.
On to `NC(=O)c1cnc2ccc(-c3c(-c4ccc(F)cc4)ncn3C[C@H](O)CO)cn12` [161′, (S)-6-(1-(2,3-dihydroxypropyl)-4-(4-fluorophenyl)-1H-imidazol-5-yl)imidazo[1,2-a]pyridine-3-carboxamide], for which, under setting [1], the IC50 turned out to be 6.7 nM.
With `NC(=O)c1cnc2ccc(-c3c(-c4ccc(F)cc4)ncn3CCCF)cn12` [162′, 6-(4-(4-fluorophenyl)-1-(3-fluoropropyl)-1H-imidazol-5-yl)imidazo[1,2-a]pyridine-3-carboxamide], the IC50 under setting [1] is 1.9 nM.
Same read-out and setting: as for `NC(=O)c1cnc2ccc(-c3c(-c4ccc(F)cc4)ncn3C[C@@H](O)CO)cn12` [164′, (R)-6-(1-(2,3-dihydroxypropyl)-4-(4-fluorophenyl)-1H-imidazol-5-yl)imidazo[1,2-a]pyridine-3-carboxamide], the figure is 5.7 nM.
Still for that read-out and setting: next, `NC(=O)c1cnc2ccc(-c3c(-c4ccc(F)cc4)ncn3CCCO)cn12` [165′, 6-(4-(4-fluorophenyl)-1-(3-hydroxypropyl)-1H-imidazol-5-yl)imidazo[1,2-a]pyridine-3-carboxamide]: 4.9 nM.
`CC(C)(O)Cn1cnc(-c2ccc(F)cc2)c1-c1ccc2ncc(C(N)=O)n2c1` [166′, 6-(4-(4-fluorophenyl)-1-(2-hydroxy-2-methylpropyl)-1H-imidazol-5-yl)imidazo[1,2-a]pyridine-3-carboxamide]: the IC50 under setting [1] came out at 9.1 nM.
As for `CC(C1CC1)n1cnc(-c2ccc(F)cc2)c1-c1ccc2ncc(C(N)=O)n2c1` (stereo not drawn) [167′, 6-(1-(1-cyclopropylethyl)-4-(4-fluorophenyl)-1H-imidazol-5-yl)imidazo[1,2-a]pyridine-3-carboxamide], under setting [1], the IC50 is 0.6 nM.
On the same count and under the same terms, next, `CC(C)Cn1cnc(-c2ccc(F)cc2)c1-c1ccc2ncc(C(N)=O)n2c1` [168′, 6-(4-(4-fluorophenyl)-1-isobutyl-1H-imidazol-5-yl)imidazo[1,2-a]pyridine-3-carboxamide]: 1.1 nM; `CC(C)n1cnc(-c2ccc(F)cc2)c1-c1ccc2ncc(C(N)=O)n2c1` [170′, 6-(4-(4-fluorophenyl)-1-isopropyl-1H-imidazol-5-yl)imidazo[1,2-a]pyridine-3-carboxamide]: 0.5 nM; `NC(=O)c1cnc2ccc(-c3c(-c4ccc(F)cc4)ncn3C(CO)CO)cn12` [171′, 6-(1-(1,3-dihydroxypropan-2-yl)-4-(4-fluorophenyl)-1H-imidazol-5-yl)imidazo[1,2-a]pyridine-3-carboxamide]: 8.4 nM.
Turning to `NC(=O)c1cnc2ccc(-c3c(-c4ccc(F)cc4)ncn3C3CCC3)cn12` [172′, 6-(1-cyclobutyl-4-(4-fluorophenyl)-1H-imidazol-5-yl)imidazo[1,2-a]pyridine-3-carboxamide], the IC50 under setting [1] was found to be 0.5 nM.
The same measure, in the same setting: next, `NC(=O)c1cnc2ccc(-c3c(-c4ccc(F)cc4)ncn3C3COC3)cn12` [173′, 6-(4-(4-fluorophenyl)-1-(oxetan-3-yl)-1H-imidazol-5-yl)imidazo[1,2-a]pyridine-3-carboxamide]: 6.6 nM; `CCC(C)n1cnc(-c2ccc(F)cc2)c1-c1ccc2ncc(C(N)=O)n2c1` (stereo not drawn) [174′, 6-(1-(sec-butyl)-4-(4-fluorophenyl)-1H-imidazol-5-yl)imidazo[1,2-a]pyridine-3-carboxamide]: 0.6 nM; `CC(CO)n1cnc(-c2ccc(F)cc2)c1-c1ccc2ncc(C(N)=O)n2c1` (stereo not drawn) [175′, 6-(4-(4-fluorophenyl)-1-(1-hydroxypropan-2-yl)-1H-imidazol-5-yl)imidazo[1,2-a]pyridine-3-carboxamide]: 2 nM.
For `CC(O)Cn1cnc(-c2ccc(F)cc2)c1-c1ccc2ncc(C(N)=O)n2c1` (stereo not drawn) [176′, 6-(4-(4-fluorophenyl)-1-(2-hydroxypropyl)-1H-imidazol-5-yl)imidazo[1,2-a]pyridine-3-carboxamide], the IC50 under setting [1] is 5.2 nM.
`CCCn1cnc(-c2ccc(F)cc2)c1-c1ccc2ncc(C(N)=O)n2c1` [177′, 6-(4-(4-fluorophenyl)-1-propyl-1H-imidazol-5-yl)imidazo[1,2-b]pyridine-3-carboxamide]: the IC50 under setting [1] came to 1.1 nM.
For the molecule `CCOCCn1cnc(-c2ccc(F)cc2)c1-c1ccc2ncc(C(N)=O)n2c1` [178′, 6-(1-(2-ethoxyethyl)-4-(4-fluorophenyl)-1H-imidazol-5-yl)imidazo[1,2-a]pyridine-3-carboxamide], under setting [1], the IC50 is 1.9 nM.

For the origin of these results see patent US9884868B2, “TGF-beta inhibitors” (Rigel Pharmaceuticals, Inc., priority 2015, dated 2018).
